Data taken from US12257224B2, “Methods of administration for highly water-soluble salts of a short acting phenylalkylamine calcium channel blocker” (Milestone Pharmaceuticals Inc., priority 2021, dated 2025).
Where two headings read alike, the source gives them in different places.

Tests used:
Format in all cases: in vivo, human
[1] = Example 7: PK analysis, serum concentration after one vs two 70 mg nasal doses; design: serum concentration, Median: unit not given here; details: for concentration at 13 min / concentration at 15 min: human, serum, other: nasal
Experimental: The serum concentration of compound I over time from the first administration for the study arm with a single 70 mg dose administration of compound I was compared with the study arm with two 70 mg dose administrations of compound I. The second 70 mg dose of compound I was administered approximately 10 minutes after the first dose.

[2] = system: induced PSVT; assay: Phase 2 study: termination of induced PSVT; details: for mean reduction in systolic blood pressure (SBP) versus baseline: between 4 and 10 minutes after administration
Experimental: In a Phase 2 study, four doses (35, 70, 105, and 140 mg) were tested.

[3] = Phase 1 study (doses up to 140 mg; PR interval, MFD, TEAEs)
[4] = system: subjects in sinus rhythm; assay: Example 4: one vs two 70 mg doses, PR interval and safety
Experimental: A population of 46 subjects in sinus rhythm received one 70 mg dose of compound I according to the protocol of Example 2, and after several months the dose regimen of 70 mg followed by a repeat same dose of 70 mg 10 minutes later as in the protocol of Example 3.
Two dose administration followed the same protocol as single dose administration for the initial dose, however 10 minutes after the first 70 mg dose of compound I, a second 70 mg dose of compound I was administered. For the second dose, the patients were allowed to blow their nose to remove any excess fluid build-up immediately prior to self-administration of the second 70 mg dose.

[5] = one 70 mg nasal dose, Time 10.5
[6] = one 70 mg nasal dose, Time 11.5
[7] = one 70 mg nasal dose, Time 1450
[8] = two 70 mg nasal doses, second approximately 10 minutes after first, Time 7
[9] = two 70 mg nasal doses, second approximately 10 minutes after first, Time 9
[10] = two 70 mg nasal doses, second approximately 10 minutes after first, Time 10.5
[11] = two 70 mg nasal doses, second approximately 10 minutes after first, Time 11.5
[12] = one and two 70 mg dose regimens

- concentration at 13 min ([1]; two 70 mg nasal doses, second approximately 10 minutes after first, Time 13, read-out: serum concentration, Max): 320 ng/mL
- concentration at 13 min ([1]; two 70 mg nasal doses, second approximately 10 minutes after first, Time 13, read-out: serum concentration, Mean): 115 ng/mL
- concentration at 13 min ([1]; two 70 mg nasal doses, second approximately 10 minutes after first, Time 13, read-out: serum concentration, Median): 93.6 ng/mL
- concentration at 13 min ([1]; two 70 mg nasal doses, second approximately 10 minutes after first, Time 13, read-out: serum concentration, Min): 22.5 ng/mL
- concentration at 15 min ([1]; two 70 mg nasal doses, second approximately 10 minutes after first, Time 15, read-out: serum concentration, Max): 317 ng/mL
- concentration at 15 min ([1]; two 70 mg nasal doses, second approximately 10 minutes after first, Time 15, read-out: serum concentration, Mean): 110 ng/mL
- concentration at 15 min ([1]; two 70 mg nasal doses, second approximately 10 minutes after first, Time 15, read-out: serum concentration, Median): 76.9 ng/mL
- concentration at 15 min ([1]; two 70 mg nasal doses, second approximately 10 minutes after first, Time 15, read-out: serum concentration, Min): 25.2 ng/mL
- serum concentration, Max ([1]; one 70 mg nasal dose, Time 0): 0 ng/mL
- serum concentration, Mean ([1]; one 70 mg nasal dose, Time 0): 0.00
- serum concentration, Median ([1]; one 70 mg nasal dose, Time 0): 0.00
- serum concentration, Min ([1]; one 70 mg nasal dose, Time 0): 0.00
- serum concentration, Max ([1]; one 70 mg nasal dose, Time 0.5): 0 ng/mL
- serum concentration, Mean ([1]; one 70 mg nasal dose, Time 0.5): 0.00
- serum concentration, Median ([1]; one 70 mg nasal dose, Time 0.5): 0.00
- serum concentration, Min ([1]; one 70 mg nasal dose, Time 0.5): 0.00
- serum concentration, Mean ([1]; one 70 mg nasal dose, Time 1.5): 11.79
- serum concentration, Median ([1]; one 70 mg nasal dose, Time 1.5): 5.20
- serum concentration, Min ([1]; one 70 mg nasal dose, Time 1.5): 0.00
- serum concentration, Max ([1]; one 70 mg nasal dose, Time 1.5, in ng/mL): 56.12
- serum concentration, Mean ([1]; one 70 mg nasal dose, Time 3): 62.82
- serum concentration, Median ([1]; one 70 mg nasal dose, Time 3): 32.60
- serum concentration, Min ([1]; one 70 mg nasal dose, Time 3): 11.45
- serum concentration, Max ([1]; one 70 mg nasal dose, Time 3, in ng/mL): 205.27
- serum concentration, Mean ([1]; one 70 mg nasal dose, Time 5): 90.64
- serum concentration, Median ([1]; one 70 mg nasal dose, Time 5): 67.70
- serum concentration, Min ([1]; one 70 mg nasal dose, Time 5): 21.18
- serum concentration, Max ([1]; one 70 mg nasal dose, Time 5, in ng/mL): 191.63
- serum concentration, Mean ([1]; one 70 mg nasal dose, Time 7): 83.04
- serum concentration, Median ([1]; one 70 mg nasal dose, Time 7): 74.22
- serum concentration, Min ([1]; one 70 mg nasal dose, Time 7): 28.61
- serum concentration, Max ([1]; one 70 mg nasal dose, Time 7, in ng/mL): 152.59
- serum concentration, Mean ([1]; one 70 mg nasal dose, Time 9): 73.39
- serum concentration, Median ([1]; one 70 mg nasal dose, Time 9): 69.68
- serum concentration, Min ([1]; one 70 mg nasal dose, Time 9): 25.94
- serum concentration, Max ([1]; one 70 mg nasal dose, Time 9, in ng/mL): 130.50
- serum concentration, Mean [1, 5]: 67.95
- serum concentration, Median [1, 5]: 59.91
- serum concentration, Min [1, 5]: 30.24
- serum concentration, Max ([1]; one 70 mg nasal dose, Time 10.5, in ng/mL): 121.45
- serum concentration, Mean [1, 6]: 66.91
- serum concentration, Median [1, 6]: 59.09
- serum concentration, Min [1, 6]: 31.61
- serum concentration, Max ([1]; one 70 mg nasal dose, Time 11.5, in ng/mL): 119.67
- serum concentration, Mean ([1]; one 70 mg nasal dose, Time 13): 62.34
- serum concentration, Median ([1]; one 70 mg nasal dose, Time 13): 59.07
- serum concentration, Min ([1]; one 70 mg nasal dose, Time 13): 29.29
- serum concentration, Max ([1]; one 70 mg nasal dose, Time 13, in ng/mL): 103.40
- serum concentration, Mean ([1]; one 70 mg nasal dose, Time 15): 57.44
- serum concentration, Median ([1]; one 70 mg nasal dose, Time 15): 52.11
- serum concentration, Min ([1]; one 70 mg nasal dose, Time 15): 26.98
- serum concentration, Max ([1]; one 70 mg nasal dose, Time 15, in ng/mL): 111.44
- serum concentration, Mean ([1]; one 70 mg nasal dose, Time 17): 50.32
- serum concentration, Median ([1]; one 70 mg nasal dose, Time 17): 41.80
- serum concentration, Min ([1]; one 70 mg nasal dose, Time 17): 26.92
- serum concentration, Max ([1]; one 70 mg nasal dose, Time 17, in ng/mL): 90.05
- serum concentration, Mean ([1]; one 70 mg nasal dose, Time 20): 49.43
- serum concentration, Median ([1]; one 70 mg nasal dose, Time 20): 46.51
- serum concentration, Min ([1]; one 70 mg nasal dose, Time 20): 22.74
- serum concentration, Max ([1]; one 70 mg nasal dose, Time 20, in ng/mL): 80.55
- serum concentration, Mean ([1]; one 70 mg nasal dose, Time 25): 41.86
- serum concentration, Median ([1]; one 70 mg nasal dose, Time 25): 42.30
- serum concentration, Min ([1]; one 70 mg nasal dose, Time 25): 19.26
- serum concentration, Max ([1]; one 70 mg nasal dose, Time 25, in ng/mL): 66.12
- serum concentration, Mean ([1]; one 70 mg nasal dose, Time 35): 33.35
- serum concentration, Median ([1]; one 70 mg nasal dose, Time 35): 36.90
- serum concentration, Min ([1]; one 70 mg nasal dose, Time 35): 15.09
- serum concentration, Max ([1]; one 70 mg nasal dose, Time 35, in ng/mL): 51.52
- serum concentration, Mean ([1]; one 70 mg nasal dose, Time 60): 20.41
- serum concentration, Median ([1]; one 70 mg nasal dose, Time 60): 22.06
- serum concentration, Min ([1]; one 70 mg nasal dose, Time 60): 8.89
- serum concentration, Max ([1]; one 70 mg nasal dose, Time 60, in ng/mL): 31.10
- serum concentration, Mean ([1]; one 70 mg nasal dose, Time 100): 13.91
- serum concentration, Median ([1]; one 70 mg nasal dose, Time 100): 12.75
- serum concentration, Min ([1]; one 70 mg nasal dose, Time 100): 6.20
- serum concentration, Max ([1]; one 70 mg nasal dose, Time 100, in ng/mL): 23.24
- serum concentration, Mean ([1]; one 70 mg nasal dose, Time 240): 5.90
- serum concentration, Median ([1]; one 70 mg nasal dose, Time 240): 5.91
- serum concentration, Min ([1]; one 70 mg nasal dose, Time 240): 1.48
- serum concentration, Max ([1]; one 70 mg nasal dose, Time 240, in ng/mL): 11.01
- serum concentration, Max ([1]; one 70 mg nasal dose, Time 370): 6.08 ng/mL
- serum concentration, Mean ([1]; one 70 mg nasal dose, Time 370): 2.49
- serum concentration, Median ([1]; one 70 mg nasal dose, Time 370): 2.51
- serum concentration, Min ([1]; one 70 mg nasal dose, Time 370): 0.00
- serum concentration, Max ([1]; one 70 mg nasal dose, Time 730): 3.17 ng/mL
- serum concentration, Mean ([1]; one 70 mg nasal dose, Time 730): 0.76
- serum concentration, Median ([1]; one 70 mg nasal dose, Time 730): 0.00
- serum concentration, Min ([1]; one 70 mg nasal dose, Time 730): 0.00
- serum concentration, Max [1, 7]: 1.2 ng/mL
- serum concentration, Mean [1, 7]: 0.10
- serum concentration, Median [1, 7]: 0.00
- serum concentration, Min [1, 7]: 0.00
- serum concentration, Mean [1, 8]: 85.77
- serum concentration, Median [1, 8]: 91.42
- serum concentration, Min [1, 8]: 17.16
- serum concentration, Max ([1]; two 70 mg nasal doses, second approximately 10 minutes after first, Time 7, in ng/mL): 180.76
- serum concentration, Mean [1, 9]: 73.20
- serum concentration, Median [1, 9]: 77.41
- serum concentration, Min [1, 9]: 15.37
- serum concentration, Max ([1]; two 70 mg nasal doses, second approximately 10 minutes after first, Time 9, in ng/mL): 144.91
- serum concentration, Mean [1, 10]: 65.97
- serum concentration, Median [1, 10]: 65.18
- serum concentration, Min [1, 10]: 14.49
- serum concentration, Max ([1]; two 70 mg nasal doses, second approximately 10 minutes after first, Time 10.5, in ng/mL): 143.87
- serum concentration, Mean [1, 11]: 96.77
- serum concentration, Median [1, 11]: 102.11
- serum concentration, Min [1, 11]: 15.52
- serum concentration, Max ([1]; two 70 mg nasal doses, second approximately 10 minutes after first, Time 11.5, in ng/mL): 215.35
- mean SBP ([2]; doses of 35 and 70 mg): did not drop
SMILES: COC(=O)c1cccc(CCN(C)CCCC(C#N)(c2ccc(OC)c(OC)c2)C(C)C)c1 (stereo not shown) [compound I, methyl 3-(2-((4-cyano-4-(3,4-dimethoxyphenyl)-5-methylhexyl)(methyl)amino)ethyl)benzoate]
- serum concentration, two 70 mg doses vs single 70 mg dose ([1]; second dose approximately 10 minutes after the first): raised the serum concentration of compound I above that observed with a single 70 mg dose
- overall success rate ([2]; 35 mg, at 15 minutes): 65%
- treatment effect compared to placebo ([2]; 35 mg, at 15 minutes): 30%
- mean reduction in systolic blood pressure (SBP) versus baseline ([2]; 105 mg): 11.4%
- mean reduction in systolic blood pressure (SBP) versus baseline ([2]; 140 mg): 15.6%
- termination of induced PSVT within 15 minutes of dosing ([2]; 70, 105 and 140 mg vs placebo): statistically significantly superior compared with placebo
- time to conversion of PSVT to sinus rhythm (SR) ([2]; 70, 105 and 140 mg vs placebo): shorter
- tolerability ([2]; NS 70 mg): well tolerated
- PR interval of the ECG ([3]; 4 highest doses tested: 30, 60, 105 and 140 mg): produced an increase in the PR interval of the ECG
- Treatment Emergent Adverse Effects (TEAEs) ([3]; doses higher than 70 mg): an increase in Treatment Emergent Adverse Effects (TEAEs), mainly related to nasal irritation
- drug exposure and PR interval ([3]; two 30 mg doses 10 minutes apart vs single 30 mg dose): drug exposure and PR interval increased and remained elevated for a longer period
- AV block [4, 12]: No new AV block was observed
- lowest systolic blood pressure seen [4, 12]: ≥ 99 mmHg
- severe adverse reactions [4, 12]: No severe adverse reactions were seen
- increase in PR interval ([4]; repeat 70 mg, second dose 10 minutes after the initial dose): 21 ms
- maximum percentage increase in PR interval ([4]; repeat dose of 70 mg): 14%
- duration of PR increase ([4]; repeat dose of 70 mg vs single dose of 70 mg): more prolonged
- increase in PR interval ([4]; single 70 mg administration): 15 ms
- maximum percentage increase in PR interval ([4]; single 70 mg administration): 9%
- heart rate and systolic blood pressure ([4]; single 70 mg dose and two 70 mg doses separated by 10 minutes): remain in normal ranges
- safety and tolerability ([4]; two dose regimen of 70 mg compared to single dose regimen): safe and was well tolerated
